Measured values taken from patent US4650798A, “Antiarrhythmic 2,2-dialkyl-1-(aminoalkyl)-spiro[chroman-4,4'-imidazolidine]-2',5'-dione s” (priority 1984, dated 1987).

What was measured:
[1] = tested on: Chloroform-induced arrhythmia; test: Chloroform-induced arrhythmia (mice); details: for minimal effective dose: Mus musculus, po, 1 h, read-out: Effective dose; for Lethal dose: peroral, mice
Protocol: (1) Chloroform-induced arrhythmia (mice):
Ventricular arrhythmia was caused experimentally in mice by the following method.
The mice were placed in a device filled with chloroform gas. After expiring, the ventricular pulse was counted from a record of an electrocardiogram. The antiarrhythmic activity of the test compound was determined based on its effect of relieving tachycardia. […] The compounds were tested by administration by two routes, i.e. peroral and intravenous injection. […] As comparative standard medicines, quinidine, disopyramide and phenytoin were employed. This method is taught in the publication, J. Pharmacol. Exp. Ther. 160,22 (1968), by J. W. Lawson.

[2] = Acute toxicity (rats), peroral; details: rat, in vivo, po
Description: (3) Acute toxicity (rats):
The acute toxicity tests on rats (peroral administration) were effected using typical compounds of the present invention, i.e. 6-chloro-2,2-dimethyl-1'-[3-(4-hydroxypiperidino)propyl]spiro[chroman-4,4'-imidazolidine]-2',5'-dione (compound 1) and 2,2-dimethyl-6-fluoro-1'-[3-(4-hydroxypiperidino)propyl]-spiro[chroman-4,4'-imidazolidine]-2',5'-dione (compound 2).

myocardia = test: Contraction of the myocardia; details: dose several times as much as that required for the antiarrhythmic effects
Description: This property is quite preferred when they are used as antiarrhythmic agents.

SMILES | minimal effective dose [1] [mg/kg] | Lethal dose [1] [mg/kg] | LD50 ([2]; female rats) [mg/kg] | LD50 ([2]; male rats) [mg/kg] | contraction power of the myocardia (myocardia)
CCN(CC)CCN1C(=O)NC2(CC(C)(C)Oc3ccc(F)cc32)C1=O (stereo not shown) | 12.5 | 200 | – | – | –
CC1(C)CC2(NC(=O)N(CCCN3CCC(O)CC3)C2=O)c2cc(Cl)ccc2O1 (stereo not shown) [Compound 1, 6-chloro-2,2-dimethyl-1'-[3-(4-hydroxypiperidino)propyl]spiro[chroman-4,4'-imidazolidine]-2',5'-dione] | – | – | 858 | 930 | –
CCC1(CC)CC2(NC(=O)N(CCCN(C)C)C2=O)c2cc(Cl)ccc2O1 (stereo not shown) | 25 | 400 | – | – | –
COC1CCN(CCCN2C(=O)NC3(CC(C)(C)Oc4ccc(F)cc43)C2=O)CC1 (stereo not shown) | 25 | 400 | – | – | –
CC1(C)CC2(NC(=O)N(CCCN3CCC(O)CC3)C2=O)c2cc(Cl)ccc2O1 (stereo not shown) [drawing 12] | 25 | 400 | – | – | –
C=C[C@H]1C[N@@]2CC[C@H]1C[C@@H]2[C@@H](O)c1ccnc2ccc(OC)cc12 [quinidine] | – | – | – | – | reduce the contraction power of the myocardia
CN(C)CCN1C(=O)NC2(CC(C)(C)Oc3ccc(F)cc32)C1=O (stereo not shown) | 50 | 400 | – | – | –
CC1(C)CC2(NC(=O)N(CCCN3CCC(c4ccccc4)CC3)C2=O)c2cc(F)ccc2O1 (stereo not shown) | 50 | 200 | – | – | –
CC1(C)CC2(NC(=O)N(CCCN3CCC(O)CC3)C2=O)c2cc(F)ccc2O1 (stereo not shown) [drawing 13] | 25 | 400 | – | – | –
CC(C)N(CCC(C(N)=O)(c1ccccc1)c1ccccn1)C(C)C (stereo not shown) [Disopyramide phosphate, reference compound] | 50 | 600 | – | – | –
CCC1(CC)CC2(NC(=O)N(CCCN3CCC(O)CC3)C2=O)c2cc(F)ccc2O1 (stereo not shown) | 25 | 400 | – | – | –
CC1(C)CC2(NC(=O)N(CCCN3CCC(O)CC3)C2=O)c2cc(Cl)cc(Cl)c2O1 (stereo not shown) | 12.5 | 400 | – | – | –
CC1(C)CC2(NC(=O)N(CCCN3CCC(O)CC3)C2=O)c2cc(F)ccc2O1 (stereo not shown) [Compound 2, 2,2-dimethyl-6-fluoro-1'-[3-(4-hydroxypiperidino)propyl]-spiro[chroman-4,4'-imidazolidine]-2',5'-dione] | – | – | 780 | 860 | –
CC(C)N(CCC(C(N)=O)(c1ccccc1)c1ccccn1)C(C)C (stereo not shown) [disopyramide] | – | – | – | – | reduce the contraction power of the myocardia
CC1CC2(NC(=O)N(CCCN(C)C)C2=O)c2cc(Cl)ccc2O1 (stereo not shown) | 12.5 | 50 | – | – | –
C=CC1CN2CCC1CC2C(O)c1ccnc2ccc(OC)cc12 (stereo not shown) [Quinidine sulfonate, reference compound] | 200 | 800 | – | – | –
O=C1NC(=O)C(c2ccccc2)(c2ccccc2)N1 [Phenytoin sodium, reference compound] | 100 | > 800 | – | – | –
CC(C)N(CCN1C(=O)NC2(CC(C)(C)Oc3ccc(F)cc32)C1=O)C(C)C (stereo not shown) | 25 | 200 | – | – | –
